According to article PMC12606624 (Journal of Chemical Information and Modeling, 2025):

What was measured:
[1] = system: monomeric RAD51 (His-RAD51[F86E, A89E]); assay: Cross-linking with BS3 or EDAC, Coomassie blue SDS-PAGE and Western blot; format: binding; settings: Coomassie blue-stained SDS-PAGE; BS3 1 mM, 1:1; EDAC 0.2% (w/v), 1:2
Experimental: For cross-linking with bis(sulfosuccinimidyl)-suberate (BS3), the purified His-RAD51[F86E, A89E] concentration was adjusted to 24 μM (=0.98 mg/mL). […] The mixture was incubated for 30 min at 20 °C on a thermoblock to allow for complex formation and then cross-linked with a final concentration of 1 mM BS3 (previously solubilized in PBS as a 50 mM stock). After 30 min at the same temperature, 4× Laemmli Sample Buffer (BioRad #1610747) was added to cross-linked samples and boiled at 95 °C for 5 min. […] The mixture was incubated for 1 h at 20 °C to allow for complex formation and then cross-linked with a final concentration of 0.2% (w/v) EDAC (previously solubilized in DMSO as a 10% w/v stock) for 1 h at the same temperature. 4× Laemmli Sample Buffer (BioRad #1610747) was then added to cross-linked samples and boiled at 95 °C for 5 min.
The efficiency of cross-linking reactions was evaluated through Coomassie blue staining and Western blot (WB) analysis. Prepared cross-linked samples were resolved using a 4–15% SDS-PAGE gel (Criterion TGX Precast Midi Protein Gel), which was stained using page blue protein staining solution (Thermo Fisher, 24620) according to manufacturer protocols. […] After three washes in TBS-T, chemiluminescence was detected using the Clarity Western ECL substrate (Biorad, #1705061), and images were recorded using a ChemiDoc MP Imaging System (Biorad). […]

[2] = system: monomeric His-RAD51 [F86E, A89E]; assay: Static light scattering (SLS) binding test, SEC columns in tandem
Experimental: Static light scattering (SLS) analyses were performed on a Viscotek GPCmax/TDA (Malvern, UK) instrument, connected in tandem with a series of two TSKgel G3000PWxl size-exclusion chromatography columns (Tosoh Bioscience) as already described in ref . For all the experiments, the system was equilibrated with buffer containing 20 mM Hepes pH 8.00, 100 mM Na2SO4, and 5% glycerol. […] Data analysis was performed using Viscotek software, calibrating the instrument with Bovine Serum Albumin at 5 mg/mL. Data were exported as .csv files and regraphed using GraphPad Prism 10.

[3] = system: His-RAD51 [F86E, A89E]; assay: Biolayer interferometry (BLI), bioBRC4 immobilized on Streptavidin biosensors; format: binding; settings: 460, 230 and 115 nM His-RAD51 [F86E, two replicates, pH 8.00, 25 °C, 180 s association, 180 s dissociation
Experimental: Biolayer interferometry (BLI) experiments were performed by utilizing an Octet K2 system (Sartorius). All BLI experiments were carried out in an assay buffer containing 20 mM Hepes, pH 8.00, 100 mM Na2SO4, 5% glycerol, 0.05% Tween 20, 0.1% PEG8000, and 0.5 mM Sodium Deoxycholate. The following protocol was applied: 60 s baseline, 240 s loading, 240 s baseline, 180 s association, 180 s dissociation. For every step, shaking at 1000 rpm was enabled, and the temperature was set at 25 °C. Streptavidin Octet biosensors (18-5019, Sartorius) were initially dipped into assay buffer to record an initial baseline for 60 s. BioBRC4 was solubilized in 100% DMSO at a 2 mM concentration, diluted at a final 1 μM concentration in assay buffer, and then immobilized to the Streptavidin sensor through a 240 s loading step. After the loading stage, a second baseline of 240 s was recorded in wells containing only assay buffer to verify the stability of the signal and remove unbound peptide. […] Data were analyzed using Octet Analysis Studio 12.2 by subtracting, from recorded sensorgrams, the signals of both the reference well and reference sensors to remove the signals due to nonspecific binding. The recorded sensorgrams were corrected by aligning to the average of the second baseline steps and applying Savitzky–Golay filtering and interstep correction based on the second baseline step. […]

Substance: Bio-Ahx-KEPTLLGFHTASGKKVKIAKESLDKVKNLFDEKEQ-COOH [bioBRC4, modified version of BRC4 harboring a biotin at the N-ter]
- cross-linking to monomeric RAD51, BS3 versus EDAC [1]: BS3 cross-linked bioBRC4 to the monomeric RAD51 more effectively than EDAC
- binding to monomeric RAD51 ([2]; SLS and BLI (two orthogonal methods), SLS: RAD51 [F86E, A89E] 24 μM, 1 h at 25 °C, 4-fold excess peptide, 20 mM Hepes pH 8.00, 100 mM Na2SO4, 5% glycerol, 5% DMSO for BioBRC4): confirmed the binding of bioBRC4 to monomeric RAD51
- effect of biotin modification on binding to monomeric RAD51 ([2]; bioBRC4 vs BRC4, assessed from SLS and BLI (Figure S3)): did not negatively affect its binding to monomeric RAD51
- binding to monomeric RAD51 [3]: showing the binding of monomeric His-
